# From patent US8802597B2, “Herbicidal pyrimidines” (E I du Pont de Nemours and Company, priority 2003, dated 2014)
# Tests used:
# Format in all cases: in vivo
# [1] = tested on: bermudagrass (Cynodon dactylon); test: Test C pre/postemergence; details: Postemergence; for Bermudagrass plant response rating: scale 0 to 100 (0 no effect, 100 complete control); for Plant response rating, Bermudagrass: scale 0 to 100
# Source text: (§1) Seeds or nutlets of plant species selected from bermudagrass (Cynodon dactylon), Surinam grass (Brachiaria decumbens), cocklebur (Xanthium strumarium), corn (Zea mays), crabgrass (Digitaria sanguinalis), woolly cupgrass (Eriochloa villosa), giant foxtail (Setaria faberii), goosegrass (Eleusine indica), johnsongrass (Sorghum halepense), kochia (Kochia scoparia), lambsquarters (Chenopodium album), morningglory (Ipomoea coccinea), eastern black nightshade (Solanum ptycanthum), yellow nutsedge (Cyperus esculentus), pigweed (Amaranthus retroflexus), common ragweed (Ambrosia elatior), soybean (Glycine max), common (oilseed) sunflower (Helianthus annuus), and velvetleaf (Abutilon theophrasti) were planted and treated preemergence with test chemicals formulated in a non-phytotoxic solvent mixture which included a surfactant.
# (§2) At the same time, plants selected from these crop and weed species and also winter barley (Hordeum vulgare), blackgrass (Alopecurus myosuroides), canarygrass (Phalaris minor), chickweed (Stellaria media), downy brome (Bromus tectorum), green foxtail (Setaria viridis), Italian ryegrass (Lolium multiflorum), wheat (Triticum aestivum), wild oat (Avena fatua) and windgrass (Apera spica-venti) were treated with postemergence applications of some of the test chemicals formulated in the same manner. Plants ranged in height from 2 to 18 cm (1- to 4-leaf stage) for postemergence treatments. Plant species in the flooded paddy test consisted of rice (Oryza sativa), umbrella sedge (Cyperus difformis), duck salad (Heteranthera limosa) and barnyardgrass (Echinochloa crus-galli) grown to the 2-leaf stage for testing. Treated plants and controls were maintained in a greenhouse for 12 to 14 days, after which time all species were compared to controls and visually evaluated. Plant response ratings, summarized in Table C, are based on a scale of 0 to 100 where 0 is no effect and 100 is complete control. A dash (-) response means no test result.
# [2] = tested on: johnsongrass (Sorghum halepense); test: Test C pre/postemergence; details: Postemergence; for Plant response rating, Johnsongrass: scale 0 to 100
# Source text: as §1, §2
# [3] = tested on: lambsquarters (Chenopodium album); test: Test C pre/postemergence; details: Postemergence; for Lambsquarters plant response rating: scale 0 to 100 (0 no effect, 100 complete control); for Plant response rating, Lambsquarters: scale 0 to 100
# Source text: as §1, §2
# [4] = tested on: soybean (Glycine max); test: Test C pre/postemergence; details: Postemergence; for Soybean plant response rating: scale 0 to 100 (0 no effect, 100 complete control); for Plant response rating, Soybean: scale 0 to 100
# Source text: as §1, §2
# [5] = tested on: chickweed (Stellaria media); test: Test C postemergence; details: for Chickweed plant response rating: scale 0 to 100 (0 no effect, 100 complete control); for Plant response rating, Chickweed: scale 0 to 100
# Procedure, shortened: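 Pre: seeds planted, sprayed same day. Post: 1- to 4-leaf plants (2–18 cm). Formulation: non-phytotoxic solvent + surfactant. Greenhouse 12–14 d; visual % control vs untreated, 0–100.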
compound,measurement,setting,value
CC(=O)NN=Cc1nc(C2CC2)nc(N)c1Br [Compound 51],Bermudagrass plant response rating,[1]; 62 g ai/ha,0
same,Bermudagrass plant response rating,[1]; 125 g ai/ha,0
same,"Plant response rating, Bermudagrass",[1]; 250 g ai/ha,0
same,"Plant response rating, Bermudagrass",[1]; 500 g ai/ha,0
same,Johnsongrass plant response rating,"[2]; 62 g ai/ha, scale 0 to 100 (0 no effect, 100 complete control)",0
same,"Plant response rating, Johnsongrass",[2]; 250 g ai/ha,0
same,"Plant response rating, Johnsongrass",[2]; 500 g ai/ha,0
same,Lambsquarters plant response rating,[3]; 62 g ai/ha,60
same,Lambsquarters plant response rating,[3]; 125 g ai/ha,75
same,"Plant response rating, Lambsquarters",[3]; 250 g ai/ha,85
same,"Plant response rating, Lambsquarters",[3]; 500 g ai/ha,90
same,Soybean plant response rating,[4]; 62 g ai/ha,75
same,Soybean plant response rating,[4]; 125 g ai/ha,95
same,"Plant response rating, Soybean",[4]; 250 g ai/ha,95
same,"Plant response rating, Soybean",[4]; 500 g ai/ha,95
same,Chickweed plant response rating,[5]; 62 g ai/ha,0
same,Chickweed plant response rating,[5]; 125 g ai/ha,0
same,"Plant response rating, Chickweed",[5]; 250 g ai/ha,0
same,"Plant response rating, Chickweed",[5]; 500 g ai/ha,45
